Where no end group is shown, it is not given here.

The data set is classed as physicochemical. On the procedure: Formulation preparation—Lyophilized cake of the CSP 7 mer was prepared using lyophilization. Five hundred μg/mL of the CSP 7 mer solution was prepared as follows: the peptide powder was dissolved in DPBS with minimal volume of ammonium hydroxide (pH 7-8) and 1.5% w/v of mannitol was added in to the solution. The solution was sterile filtered using 0.2 μm SFCA sterile syringe filter (Corning Inc., Corning, N.Y.). Effect of filtration was also tested. One milliliter of the filtrate was filled into a borosilicate glass vial and lyophilized using a VirTis Advantage Lyophilizer (VirTis Company Inc., Gardiner, N.Y.). Lyophilization cycle parameters were set as outlined in Table 2. Primary drying time was varied by number of samples. Nebulization study of the CSP 7 mer peptide—Lyophilized peptide was reconstituted with sterile water for injection (500 μg/mL). […] The condensate of each sample was collected in a polypropylene tube and kept at 5° C. until analyzed. The amount of peptide in each sample was analyzed using high performance liquid chromatography (HPLC) and the degradation products was detected using liquid chromatography mass spectroscopy (LC/MS). Chromatographic conditions—Samples were analyzed using a Dionex 3000 high performance liquid chromatography (HPLC) system (Thermo Fisher Scientific, Fair Lawn, N.J.) with a wavelength of 220 nm. […]

For FTTFTVT [CSP-7, FTTFTVT], the “percent recovery of the peptide (chemical assay, % of peptide remaining)” value is given as “did not have an influence”.

For the origin of these results see US20210330741A1, “POLYPEPTIDE THERAPEUTICS AND USES THEREOF” (BOARD OF REGENTS, THE UNIVERSITY OF TEXAS SYSTEM, priority 2015, published 2021).
